Measurements as given in PMC8881077 (Journal of Enzyme Inhibition and Medicinal Chemistry, 2022).
Several values for one entry are separate records, joined by “and”; a condition that tells them apart may be missing. Equal entries are not always repeated. Where two headings read alike, the source gives them in different places.

Legend:
[1] = biological target: huAChE-induced Aβ1–40 aggregation (Homo sapiens, UniProt P22303); assay: huAChE-induced Aβ1–40 aggregation, ThT assay; assay type: biochemical; details: inhibitor 100 μM, Aβ1–40 230 μM, Aβ1–40/AChE ratio 100/1
[2] = Metal-chelating property, UV-visual spectrometry; assay type: physicochemical; details: for molar ratio at intersection: complex with Cu^2+; for maximum absorption wavelength after adding AlCl3: compound and AlCl3 37.5 μM in methanol; for maximum absorption wavelength after adding CuCl2: compound and CuCl2 37.5 μM in methanol; for maximum absorption after adding FeSO4: compound and FeSO4 37.5 μM in methanol; for maximum absorption after adding ZnCl2: compound and ZnCl2 37.5 μM in methanol
Protocol: The chelating property of compounds 5f and 7k were determined by UV-visual spectrometry and biometals such as Cu^2+, Zn^2+, Al^3+ and Fe^2+ were applied[19]^,[20]. […] The stoichiometry of the 5f-Cu^2+ complex was determined using the molar ratio method by preparing solutions of compound 5f with increasing amounts of CuCl2 at 386 nm.
Further, the stoichiometry of the 7k-Cu^2+ complex was determined using the molar ratio method at 385 nm.
The metal chelation property was investigated by UV absorption in a Shimadzu UV-2450 spectrophotometer. The detailed procedure referenced our previous work[20]^,[22].

[3] = system: TNF-α production in LPS-induced BV-2 cells; assay: TNF-α production in BV-2 cells, ELISA; assay type: cell-based; details: 1.0 μg/mL LPS
Protocol: (§1) Compounds 5f and 7k were selected to test the anti-inflammatory potency by measuring the production of inflammatory mediators TNF-α and NO in LPS-induced BV-2 cells[32]^,[33]. • Cytotoxicity of compounds 5f and 7k on BV-2 cells. Firstly, the cytotoxicity of compounds 5f and 7k were tested using an MTT assay. […] In inhibition of LPS-induced, NO production was tested through the Griess reaction method. […] In addition, to further investigate the effects of compounds 5f and 7k on LPS-induced TNF-α production in BV-2 cells, the enzyme-linked immunosorbent assay (ELISA) was used.
Inhibition of LPS-induced TNF-α production was evaluated with an enzyme-linked immunosorbent assay (ELISA). The methods of BV-2 cells culture, adding different concentrations of tested compounds 5f or 7k (1 μM, 3 μM and 9 μM) (10 μL) and LPS (1.0 μg/mL, 10 μL) and setting blank control group were the same as above in cytotoxicity assay. Then, the supernatant of the cell culture solution (50 μL) was added to a 96-well plate and the release of cytokine TNF-α was measured by ELISA according to the instructions of the ELISA kit.

[4] = biological target: AChE PAS (Homo sapiens, UniProt P22303); assay: biochemical; assay type: binding
[5] = biological target: Aβ1–42 (Homo sapiens, UniProt P05067); assay: Self-induced Aβ1–42 aggregation, Thioflavin T fluorescence; assay type: biochemical; details: tested compounds and Aβ1–42 25 μM
From the text: The Thioflavin T-based flurometric assay was employed to test the inhibition potency on self-induced/Cu^2+-induced Aβ1-42 aggregation.

[6] = PAMPA-BBB; for Pe: final concentration 100 μg/mL
[7] = biological target: T1, ratBuChE (Rattus norvegicus, UniProt Q9JKC1); assay: ratBuChE inhibition, modified Ellman's method; assay type: biochemical
T1 construct: BuChE from rat serum or human serum (Sigma Co.); from tissue; host or cells: rat serum
Protocol: The AChE and BuChE inhibitory activities of the synthesised compounds were evaluated using the Ellman assay with slight modification. AChE from 5% rat cortex homogenate or human erythrocytes (Sigma Co.). BuChE from rat serum or human serum (Sigma Co.).

[8] = for ORAC: Trolox as standard
Protocol: The skeleton compounds naringenin and apigenin were also evaluated for comparison purposes, and vitamin E analogue Trolox was used as a standard.
The antioxidant potency of target compounds was tested using an oxygen radical absorbance capacity fluorescein (ORAC-FL) assay.

[9] = system: BV-2 cells; assay: Cytotoxicity on BV-2 cells, MTT assay; assay type: cell-based; details: 1 μM, 3 μM and 9 μM
Protocol: Compounds 5f and 7k were selected to test the anti-inflammatory potency by measuring the production of inflammatory mediators TNF-α and NO in LPS-induced BV-2 cells[32]^,[33]. • Cytotoxicity of compounds 5f and 7k on BV-2 cells. Firstly, the cytotoxicity of compounds 5f and 7k were tested using an MTT assay. […] In inhibition of LPS-induced, NO production was tested through the Griess reaction method. […] […]. In addition, to further investigate the effects of compounds 5f and 7k on LPS-induced TNF-α production in BV-2 cells, the enzyme-linked immunosorbent assay (ELISA) was used. […].
The anti-neuroinflammatory property of compounds 5f and 7k was assessed using BV-2 cells by evaluating the level of NO production and TNF-α production[32]^,[33]. Firstly, the cytotoxicity of compounds 5f and 7k was tested on BV-2 cells using an MTT assay. BV-2 cells were seeded in DMEM (100 μL) and cultured in a 96-well cell culture microplate and incubated in a humidified incubator containing 5% CO2 at 37 °C for 24 h. Then, 10 μL of 5f or 7k were added to cells in triplicate wells, followed by incubation for another 30 min. […] Finally, the crystals obtained were dissolved in DMSO (200 μ L) and OD values were measured at 490 nm. The results were recorded and expressed as the percent cell viability compared to the control group.

[10] = system: NO production in LPS-induced BV-2 cells; assay: NO production in BV-2 cells, Griess reaction; assay type: cell-based; details: for release volume of NO in BV-2 cells without LPS: 3 μM and 9 μM
Protocol: as §1
Griess reagent system was used to evaluate the inhibition of LPS-induced NO production. The methods of culturing BV-2 cells, setting blank control and adding tested compounds 5f or 7k (1 μM, 3 μM and 9 μM) and LPS were the same as those in the cytotoxicity assay. After that, the cell culture supernatants and different concentrations of NaNO2 as a standard were added to a 96-well plate since the NaNO2 concentration in the supernatant could act as an indicator of NO production. Then, to each well was added the same volume of Griess reagent and incubated at room temperature for 10 min. Finally, the absorbance was monitored at 540 nm using an ELISA plate reader to measure the results of NO production.

Sequence of AChE PAS (P22303 32-614): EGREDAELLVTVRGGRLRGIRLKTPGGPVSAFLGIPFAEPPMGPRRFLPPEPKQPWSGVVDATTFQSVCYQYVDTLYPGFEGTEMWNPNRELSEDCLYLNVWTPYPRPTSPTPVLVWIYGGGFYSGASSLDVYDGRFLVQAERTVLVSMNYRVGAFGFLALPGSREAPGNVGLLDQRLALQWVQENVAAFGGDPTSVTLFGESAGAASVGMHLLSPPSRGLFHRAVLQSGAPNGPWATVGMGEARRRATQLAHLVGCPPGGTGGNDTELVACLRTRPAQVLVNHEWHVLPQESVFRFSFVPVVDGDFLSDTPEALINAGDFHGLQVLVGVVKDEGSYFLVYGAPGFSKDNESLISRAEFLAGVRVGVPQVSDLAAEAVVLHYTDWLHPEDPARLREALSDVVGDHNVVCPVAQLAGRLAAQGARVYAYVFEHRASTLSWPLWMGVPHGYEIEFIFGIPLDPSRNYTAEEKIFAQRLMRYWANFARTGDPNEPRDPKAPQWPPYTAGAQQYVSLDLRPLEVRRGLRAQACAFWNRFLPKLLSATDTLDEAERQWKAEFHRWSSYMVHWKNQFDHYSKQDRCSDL
Sequence of Aβ1–42 (P05067 672-713): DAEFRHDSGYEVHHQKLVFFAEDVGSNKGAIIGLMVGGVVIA
T1 sequence (Q9JKC1 24-597): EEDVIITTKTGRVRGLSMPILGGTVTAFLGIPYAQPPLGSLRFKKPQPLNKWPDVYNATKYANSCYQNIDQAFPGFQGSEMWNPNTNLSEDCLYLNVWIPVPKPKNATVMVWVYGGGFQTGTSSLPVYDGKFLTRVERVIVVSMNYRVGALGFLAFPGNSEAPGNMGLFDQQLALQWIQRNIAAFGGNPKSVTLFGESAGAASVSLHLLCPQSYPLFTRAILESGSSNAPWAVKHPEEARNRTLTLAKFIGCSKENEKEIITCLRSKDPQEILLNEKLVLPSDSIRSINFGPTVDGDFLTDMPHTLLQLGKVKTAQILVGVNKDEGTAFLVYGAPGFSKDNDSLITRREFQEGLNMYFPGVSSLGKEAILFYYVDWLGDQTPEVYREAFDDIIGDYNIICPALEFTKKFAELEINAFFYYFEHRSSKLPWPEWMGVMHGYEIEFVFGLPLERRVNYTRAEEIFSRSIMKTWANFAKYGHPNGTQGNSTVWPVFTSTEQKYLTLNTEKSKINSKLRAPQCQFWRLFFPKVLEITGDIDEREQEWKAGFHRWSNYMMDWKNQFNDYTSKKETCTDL
Sequence of huAChE-induced Aβ1–40 aggregation (P22303 32-588 isoform P22303-2): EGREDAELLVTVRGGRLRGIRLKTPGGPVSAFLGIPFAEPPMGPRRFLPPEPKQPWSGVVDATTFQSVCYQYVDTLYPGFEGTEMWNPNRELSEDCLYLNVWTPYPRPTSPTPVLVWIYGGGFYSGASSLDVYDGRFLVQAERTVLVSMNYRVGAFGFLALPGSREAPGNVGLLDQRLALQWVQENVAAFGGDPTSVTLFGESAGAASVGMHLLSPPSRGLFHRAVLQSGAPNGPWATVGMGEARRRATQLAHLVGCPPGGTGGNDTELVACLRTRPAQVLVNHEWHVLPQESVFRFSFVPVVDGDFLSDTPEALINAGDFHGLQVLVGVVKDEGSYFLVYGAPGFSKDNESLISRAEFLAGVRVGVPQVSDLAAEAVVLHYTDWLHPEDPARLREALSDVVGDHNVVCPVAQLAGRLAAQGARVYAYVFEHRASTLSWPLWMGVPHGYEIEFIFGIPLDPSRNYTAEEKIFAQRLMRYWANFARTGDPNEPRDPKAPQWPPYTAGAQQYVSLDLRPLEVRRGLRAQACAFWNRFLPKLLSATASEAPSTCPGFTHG

7-((6-(benzyl(ethyl)amino)hexyl)oxy)-2–(4-((6-(benzyl(ethyl)amino)hexyl)oxy)phenyl)-5-hydroxychroman-4-one [Compound 7k]
Inhibition of huAChE-induced Aβ1–40 aggregation (%) [1]: 43.4 ± 0.43%
molar ratio at intersection [2]: 1.1
maximum absorption wavelength after adding AlCl3 [2]: did not show an obvious change
maximum absorption wavelength after adding CuCl2 [2]: 385 nm
maximum absorption after adding FeSO4 [2]: did not show an obvious change
maximum absorption after adding ZnCl2 [2]: did not show an obvious change
TNF-α production ([3]; 1 μM): 1295 pg/mL
inhibitory rate of TNF-α production ([3]; 1 μM): 23.8%
TNF-α production ([3]; 3 μM): 915 pg/mL
inhibitory rate of TNF-α production ([3]; 3 μM): 46.2%
TNF-α production ([3]; 9 μM): 553 pg/mL
inhibitory rate of TNF-α production ([3]; 9 μM): 67.5%
Propidium iodide displacement from AChE PAS (% inhibition) ([4]; 10 μM): 23.1 ± 1.2%
Propidium iodide displacement from AChE PAS (% inhibition) ([4]; 50 μM): 34.3 ± 2.1%
Inhibition of Aβ1–42 aggregation, Self-induced (%) [5]: 43.8 ± 0.51%
Prediction [6]: CNS+ (Pe > 3.44 displayed high BBB permeation)
Pe [6]: 11.7 ×10^−6 cm/s and 11.7 ± 0.54 ×10^−6 cm/s
IC50 ([7]; BuChE from rat serum, read-out: IC50 ± SD ratBChE): 14.8 ± 0.36 µM
ORAC [8]: 1.2 ± 0.02 μM of Trolox equivalent/μM of tested compound
cell viability of BV-2 cells [9]: did not show obvious change
inhibition rate of LPS-induced NO production ([10]; 1 μM, 1 μg/mL LPS): 26.7%
release volume of NO in BV-2 cells without LPS ([10]; 1 μM): did not produce significant change
inhibition rate of LPS-induced NO production ([10]; 3 μM, 1 μg/mL LPS): 36.2%
inhibition rate of LPS-induced NO production ([10]; 9 μM, 1 μg/mL LPS): 48.5%

CCN(CCCCCOc1cc(O)c2c(c1)OC(c1ccc(O)cc1)CC2=O)Cc1ccccc1 (stereo not shown) [Compound 5f, 7-((5-(benzyl(ethyl)amino)pentyl)oxy)-5-hydroxy-2–(4-hydroxyphenyl)chroman-4-one]
Inhibition of huAChE-induced Aβ1–40 aggregation (%) [1]: 51.7 ± 0.75%
molar ratio at intersection [2]: 1.1
maximum absorption wavelength after adding AlCl3 [2]: 388 nm
maximum absorption wavelength after adding CuCl2 [2]: 386 nm
maximum absorption after adding FeSO4 [2]: did not present obvious shift
maximum absorption after adding ZnCl2 [2]: did not present obvious shift
TNF-α production ([3]; 1 μM): 1130 pg/mL
TNF-α production ([3]; 3 μM): 728 pg/mL
TNF-α production ([3]; 9 μM): 394 pg/mL
inhibition at 1 µM ([3]; Mus musculus, BV-2, 1 μM, read-out: inhibitory rate of TNF-α production): 33.5%
inhibition at 3 µM ([3]; Mus musculus, BV-2, 3 μM, read-out: inhibitory rate of TNF-α production): 57.2%
inhibition at 9 µM ([3]; Mus musculus, BV-2, 9 μM, read-out: inhibitory rate of TNF-α production): 76.8%
inhibition at 10 µM ([4]; 10 μM, read-out: Propidium iodide displacement from AChE PAS (% inhibition)): 25.7 ± 1.9%
inhibition at 50 µM ([4]; 50 μM, read-out: Propidium iodide displacement from AChE PAS (% inhibition)): 36.9 ± 3.5%
inhibition at 25 µM [5]: 62.1 ± 0.38%
Prediction [6]: CNS+ (Pe > 3.44 displayed high BBB permeation)
Pe [6]: 6.9e-06 cm/s
IC50 [7]: 16.9 ± 0.27 µM
ORAC values [8]: 2.3 eq
ORAC [8]: 2.3 ± 0.03 μM of Trolox equivalent/μM of tested compound
cell viability of BV-2 cells [9]: did not show obvious change
release volume of NO in BV-2 cells without LPS ([10]; 1 μM): did not produce significant change
inhibition at 1 µM ([10]; Mus musculus, BV-2, 1 μM, 1 μg/mL LPS, read-out: inhibition rate of LPS-induced NO production): 37.6%
inhibition at 3 µM ([10]; Mus musculus, BV-2, 3 μM, 1 μg/mL LPS, read-out: inhibition rate of LPS-induced NO production): 52.1%
inhibition at 9 µM ([10]; Mus musculus, BV-2, 9 μM, 1 μg/mL LPS, read-out: inhibition rate of LPS-induced NO production): 63.8%
